Results from publication PMC3876937 (Protein expression and purification, 2013).

Molecular target: T1, YGR257Cp (Mtm1p) (Saccharomyces cerevisiae, UniProt P53320)
T1 sequence (P53320 1-366): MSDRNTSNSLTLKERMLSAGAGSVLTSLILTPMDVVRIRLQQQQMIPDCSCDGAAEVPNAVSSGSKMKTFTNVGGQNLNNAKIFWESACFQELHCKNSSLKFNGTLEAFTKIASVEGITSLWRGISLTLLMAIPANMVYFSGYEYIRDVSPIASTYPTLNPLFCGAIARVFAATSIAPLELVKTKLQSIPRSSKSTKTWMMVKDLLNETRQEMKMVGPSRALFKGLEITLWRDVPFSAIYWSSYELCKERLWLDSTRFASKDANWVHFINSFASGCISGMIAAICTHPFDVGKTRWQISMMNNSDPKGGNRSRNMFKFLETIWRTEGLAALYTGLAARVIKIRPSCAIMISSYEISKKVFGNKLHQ
Test: intrinsic tryptophan fluorescence quenching titration
Assay type: binding

Work on Cc1ncc(COP(=O)(O)O)c(C=O)c1O [pyridoxal 5′-phosphate] yielded a Kd of 700 ± 20 nM.
